Where “and” joins values, the source holds several entries; their conditions need not be identical. Identical values can stand only once. Like-named read-outs stand apart in the source and are kept apart here.
Assays:
[1] = target: T1, α-glucosidase (Saccharomyces cerevisiae, UniProt P53341); experiment: α-glucosidase inhibitory assay (pNPG substrate, absorbance at 405 nm); format: biochemical
T1 construct: purchased Sigma-Aldrich (Shanghai, China) G5003-100UN
Description: The α-glucosidase inhibitory activity of the S. grosvenorii root extracts was determined using a method mentioned previously, with some modifications to it. Briefly, the sample was dissolved in PBS containing 10% dimethyl sulfoxide. A mixture of the tested sample (50 μL, different concentrations) and α-glucosidase (20 μL, 0.2 U/mL) was placed in a 96-well microplate and incubated at 37 °C for 5 min. Next, 20 μL pNPG (1 mM) was added, and the mixture was further reacted for 30 min at 37 °C and terminated through the addition of […] solution (50 μL, […]). The percentage inhibition of α-glucosidase was determined by measuring the absorbance of the mixture at 405 nm and calculated by Equation (1):Inhibition (%) = [1 − (Ainhibitor − Ablank inhibitor)/(Acontrol − Acontrol blank)] × 100(1) where Ainhibitor, Ablank inhibitor, Acontrol, Acontrol blank are the absorbance values of the potential inhibitor and α-glucosidase, only the potential inhibitor without α-glucosidase, only α-glucosidase, and PBS buffer, respectively.

[2] = target: T1, α-glucosidase; experiment: Affinity ultrafiltration coupled with HPLC (UF-HPLC), specific binding factor; details: peaks of SGR2 (10 mg/mL) incubated with α-glucosidase; active vs denatured enzyme
Description: Affinity UF was performed as previously described, with slight modifications. Briefly, a PBS solution of SGR2 (10 mg/mL, 800 μL) was mixed with α-glucosidase (1 U/mL, 400 μL) and incubated at 37 °C for 45 min. Next, the mixture was centrifuged at 10,000 rpm for 10 min using a UF membrane with a 10 kDa molecular weight cutoff, to collect the active component and α-glucosidase complexes. The complexes were washed 3 times with 600 μL of PBS (0.1 M, pH 7.2) to remove unbound compounds. A solution of 70% methanol (200 μL) was added to the residue and incubated at 4 °C for 20 min to release the bound compounds. Then, the solution was collected and concentrated to a dry state. Subsequently, the dry residue was further dissolved with 0.2 mL methanol and subjected to HPLC analysis. As a negative control, α-glucosidase was inactivated at 100 °C in a water bath for 10 min. […] The specific binding factors were calculated according to Equation (2):Specific binding factor (%) = (Aa − Ab)/Ac × 100%(2) where, Aa is the peak area of the experiment with active α-glucosidase, Ab is the peak area of the control group with denatured α-glucosidase, and Ac is the peak area of the extract.

T1 sequence (P53341 whole entry): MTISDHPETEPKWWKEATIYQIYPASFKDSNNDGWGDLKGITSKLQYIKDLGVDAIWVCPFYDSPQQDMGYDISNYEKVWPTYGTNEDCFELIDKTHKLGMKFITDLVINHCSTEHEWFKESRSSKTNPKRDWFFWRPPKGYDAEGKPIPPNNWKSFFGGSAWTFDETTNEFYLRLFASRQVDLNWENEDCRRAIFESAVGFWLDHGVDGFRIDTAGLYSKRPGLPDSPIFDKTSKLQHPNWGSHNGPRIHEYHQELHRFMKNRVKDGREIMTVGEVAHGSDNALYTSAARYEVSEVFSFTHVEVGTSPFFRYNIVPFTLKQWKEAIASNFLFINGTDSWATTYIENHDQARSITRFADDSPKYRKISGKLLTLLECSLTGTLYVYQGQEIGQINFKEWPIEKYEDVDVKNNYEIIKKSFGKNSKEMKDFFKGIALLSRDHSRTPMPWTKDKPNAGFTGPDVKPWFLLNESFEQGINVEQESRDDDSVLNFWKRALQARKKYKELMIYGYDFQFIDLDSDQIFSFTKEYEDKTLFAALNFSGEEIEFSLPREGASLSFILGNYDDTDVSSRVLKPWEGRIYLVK

COc1cc(C[C@@H]2CO[C@@H](c3ccc(O)c(OC)c3)[C@@H]2CO)ccc1O [Compound 1, (-)-lariciresinol]
IC50 [1]: 1830 ± 31.3 µM
inhibition at 1000 µg/mL [1]: 78.2 ± 1.54%
Specific Binding Factors Mean ± SD (n = 3) [2]: 4.97 ± 0.15%

COc1cc([C@@H]2Oc3c(OC)cc(/C=C/CO)cc3[C@H]2CO)ccc1O [Compound 2, 3,4′-dimethoxy-4,9,9′-trihydroxy-benzofuranolignan-7′-ene]
inhibition at 1000 µg/mL [1]: 63.43 ± 0.23%
IC50 ([1]; read-out: IC50): 2275 ± 13.8 µM
Specific Binding Factors Mean ± SD (n = 3) [2]: 1.87 ± 0.77%

CC1=C2CCC3C(C)(C(=O)CC4(C)C(C(C)CC/C=C(\C)C(=O)OC5OC(COC6OC(CO)C(O)C(O)C6O)C(O)C(O)C5O)C(OC5OC(CO)C(O)C(O)C5O)CC34C)C2CCC1=O (centres unmarked) [Compound 4, Siraitic acid III E]
inhibition at 1000 µg/mL [1]: 36.74 ± 0.36%
Specific Binding Factors Mean ± SD (n = 3) [2]: 2.93 ± 0.72%

CC1=C2CCC3C(C)(C(=O)CC4(C)C(C(C)CC/C=C(\C)C(=O)OC5OC(CO)C(O)C(O)C5O)C(OC5OC(CO)C(O)C(O)C5O)CC34C)C2CCC1=O (centres unmarked) [Compound 6, Siraitic acid IIb E]
inhibition at 1000 µg/mL [1]: 42.4 ± 0.81%
Specific Binding Factors Mean ± SD (n = 3) [2]: 3.91 ± 0.17%

CC(=CCCC(C)C1C(O)CC2(C)C3CCC4=C(C)C(=O)CCC4C3C(=O)CC12C)C(=O)OC1OC(COC2OC(CO)C(O)C(O)C2O)C(O)C(O)C1O (centres unmarked) [Compound 7, Siraitic acid II E]
inhibition at 1000 µg/mL [1]: 58.5 ± 1.19%
IC50 ([1]; read-out: IC50): 1207 ± 5.49 µM
Specific Binding Factors Mean ± SD (n = 3) [2]: 3.46 ± 1.03%

C/C(=C\CCC(C)C1CCC2(C)C3CC=C4C(CCC(OC5OC(COC6OC(CO)C(O)C(O)C6O)C(O)C(O)C5O)C4(C)C)C3(C)C(=O)CC12C)C(=O)OC1OC(COC2OC(CO)C(O)C(O)C2O)C(O)C(O)C1O (centres unmarked) [Compound 8, Siraitic acid IV H]
inhibition at 1000 µg/mL [1]: 23.4 ± 1.05%
Specific Binding Factors Mean ± SD (n = 3) [2]: 0.27 ± 0.18%

CC(=CCCC(C)C1CCC2(C)C3CCC4=C(C)C(=O)CCC4C3(C)C(=O)CC12C)C(=O)OC1OC(COC2OC(CO)C(O)C(O)C2O)C(O)C(O)C1O (centres unmarked) [Compound 9, Siraitic acid II G]
inhibition at 1000 µg/mL [1]: 53.1 ± 0.99%
IC50 ([1]; read-out: IC50): 1581 ± 12.5 µM
Specific Binding Factors Mean ± SD (n = 3) [2]: 5.33 ± 2.11%

C/C(=C\CCC(C)C1CCC2(C)C3CCC45OCC3(C(=O)CC12C)C4CCC(O)C5C)C(=O)OC1OC(COC2OC(CO)C(O)C(O)C2O)C(O)C(O)C1O (centres unmarked) [Compound 11, Siraitic acid II A]
inhibition at 1000 µg/mL [1]: 50.6 ± 1.23%
IC50 ([1]; read-out: IC50): 1240 ± 20.5 µM
Specific Binding Factors Mean ± SD (n = 3) [2]: 6.59 ± 0.91%

C/C(=C\CCC(C)C1CCC2(C)C3CCC45OCC3(C(=O)CC12C)C4CCC(=O)C5C)C(=O)OC1OC(COC2OC(CO)C(O)C(O)C2O)C(O)C(O)C1O (centres unmarked) [Compound 12, Siraitic acid II B]
inhibition at 1000 µg/mL [1]: 51.3 ± 0.83%
IC50 ([1]; read-out: IC50): 1030 ± 36.9 µM
Specific Binding Factors Mean ± SD (n = 3) [2]: 6.65 ± 1.18%

CC(=O)OC(C)(C)CCC(=O)[C@](C)(O)C1[C@H](O)C[C@@]2(C)[C@@H]3CC=C4[C@@H](CC(O)[C@@H](O)C4(C)C)[C@]3(C)C(=O)C[C@]12C (some centres unmarked) [Compound 13, 23,24-dihydrocucurbitacin F-25-acetate]
inhibition at 1000 µg/mL [1]: 21.7 ± 0.58%
Specific Binding Factors Mean ± SD (n = 3) [2]: 1.31 ± 0.06%

CC(=CCCC(C)C1CCC2(C)C3CCC4=C(C)C(=O)CCC4C3C(=O)CC12C)C(=O)OC1OC(COC2OC(CO)C(O)C(O)C2O)C(O)C(O)C1O (centres unmarked) [Compound 14, Siraitic acid II C]
inhibition at 1000 µg/mL [1]: 72 ± 2.18%
IC50 ([1]; read-out: IC50): 430 ± 13.3 µM
Specific Binding Factors Mean ± SD (n = 3) [2]: 17.26% and 17.26 ± 3.14%

CC(=O)OC(C)(C)CCC(=O)[C@](C)(O)[C@H]1[C@H](O)C[C@@]2(C)[C@@H]3CC=C4[C@@H](C[C@H](O)C(=O)C4(C)C)[C@]3(C)C(=O)C[C@]12C [Compound 16, 23,24-dihydrocucurbitacin B]
inhibition at 1000 µg/mL [1]: 27.5 ± 3.8%
Specific Binding Factors Mean ± SD (n = 3) [2]: 4.70 ± 0.76%

CC(=O)OC(C)(C)CCC(=O)[C@](C)(O)C1C(O)C[C@@]2(C)[C@@H]3CC=C4[C@@H](CC(=O)[C@@H](O)C4(C)C)[C@]3(C)C(=O)C[C@]12C (some centres unmarked) [Compound 17, Dihydroisocucurbitacin B-25-acetate]
inhibition at 1000 µg/mL [1]: 23.7 ± 0.33%
Specific Binding Factors Mean ± SD (n = 3) [2]: 2.28 ± 0.44%

Cucurbitacin B [Compound 15]
Inhibition (%) ([1]; concentration of 1.0 mg/mL compound): 50.59 ± 0.98%
Specific Binding Factors Mean ± SD (n = 3) [2]: 7.98% and 7.98 ± 1.11%

From publication PMC10299727, “Identification and Isolation of α-Glucosidase Inhibitors from Siraitia grosvenorii Roots Using Bio-Affinity Ultrafiltration and Comprehensive Chromatography” (International Journal of Molecular Sciences, 2023)
